This passage reports IC50 results from patent US7211576B2, “Diaminothiazoles” (Hoffmann-La Roche Inc., priority 2004, dated 2007).

What is called IC50 is the midpoint of a concentration-inhibition curve.

One assay concerns the target human cyclin D1-CDK4 (Homo sapiens, UniProt P11802). Nature of the assay: FlashPlate kinase assay, cyclin D1-CDK4. The class given is biochemical. Particulars: Rb protein substrate, 1 μM ATP, 33P-ATP, 30 minutes room temperature; read-out: CDK4 IC50.
The target in a further assay is human cyclin E-CDK2 (Homo sapiens, UniProt P24941). Briefly: FlashPlate kinase assay, cyclin E-CDK2. The class given is biochemical. Particulars: Rb protein substrate, 1 μM ATP, 33P-ATP, 30 minutes room temperature.
A further assay deals with human cyclin B-CDK1 (Homo sapiens, UniProt P06493). Nature of the assay: FlashPlate kinase assay, cyclin B-CDK1. The assay is classed as biochemical. Particulars: Rb protein substrate, 1 μM ATP, 33P-ATP, 30 minutes room temperature.
Sequence of human cyclin B-CDK1 (P06493 whole entry): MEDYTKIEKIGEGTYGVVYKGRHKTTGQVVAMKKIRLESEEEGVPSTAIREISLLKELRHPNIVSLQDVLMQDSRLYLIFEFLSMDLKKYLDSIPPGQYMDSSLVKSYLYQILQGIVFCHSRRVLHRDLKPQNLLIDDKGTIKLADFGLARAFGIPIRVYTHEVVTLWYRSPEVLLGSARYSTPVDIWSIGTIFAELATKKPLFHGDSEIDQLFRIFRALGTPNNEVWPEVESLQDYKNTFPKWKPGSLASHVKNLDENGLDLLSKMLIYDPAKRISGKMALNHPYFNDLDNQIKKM
Sequence of human cyclin B-CDK1 (P14635 whole entry partner): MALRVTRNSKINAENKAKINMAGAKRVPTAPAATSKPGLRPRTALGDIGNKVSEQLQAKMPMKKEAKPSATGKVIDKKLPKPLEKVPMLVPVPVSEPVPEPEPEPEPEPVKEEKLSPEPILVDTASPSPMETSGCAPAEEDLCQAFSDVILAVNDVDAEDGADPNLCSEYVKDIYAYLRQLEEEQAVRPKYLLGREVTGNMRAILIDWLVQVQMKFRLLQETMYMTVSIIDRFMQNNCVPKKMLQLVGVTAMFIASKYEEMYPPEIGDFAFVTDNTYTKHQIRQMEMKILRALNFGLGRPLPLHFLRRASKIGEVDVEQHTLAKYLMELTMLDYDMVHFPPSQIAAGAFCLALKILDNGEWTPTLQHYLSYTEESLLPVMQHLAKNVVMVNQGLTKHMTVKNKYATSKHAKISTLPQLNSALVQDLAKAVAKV
For assay [1], the system named is HCT116, a colorectal carcinoma cell line. Briefly: Tetrazolium dye (MTT) proliferation assay. Particulars: Homo sapiens, HCT-116; HCT116 cells, inhibition of cell proliferation. The assay is classed as cell-based. As to the method: Proliferation was evaluated by the tetrazolium dye assay according to the procedure of Denizot and Lang (Denizot, F. and Lang, R. J Immunol Methods 1986, 89, 271–277). The cell line used was HCT116, a colorectal carcinoma cell line obtained from the American Type Cell Culture Collection (ATCC; Rockville, Md.). The cells were grown in McCoy's 5A medium supplemented with 10% FCS and L-glutamine.
Cells were plated at the appropriate seeding density to give logarithmic growth over the course of the assay in a 96-well tissue culture plate. Plates were incubated overnight at 37° C. in a humidified incubator with 5% CO2. The next day, test compounds were serially diluted to four times the final concentration in the appropriate medium containing 1.2% DMSO. One-fourth final volume of each dilution was added in duplicate to the plates containing cells. The same volume of 1.2% DMSO in medium was added to a row of “control wells” such that the final concentration of DMSO in each well was 0.3%. Wells to which no cells were added served as the “blank.” Wells to which no inhibitor was added served as “no inhibitor control.” The plates were) returned to the incubator, and at set time points (determined by their growth curves) plates were analyzed as described below.
3-(4,5-dimethylthiazole-2-yl)-2,5-diphenyl-2H-tetrazolium bromide (thiazolyl blue; MTT; Sigma) was added to each well to yield a final concentration of 1 mg/ml. Plates were returned to the incubator for 2.5–3 hours at 37° C. The MTT-containing medium was removed and the resulting formazan metabolite was solubilized in 100% ethanol with shaking for 15 minutes at room temperature. Absorbance readings were taken in a microtiter plate reader (Dynatech and Molecular Devices plate readers were used interchangeably) at a wavelength of 570 nm with a 650 nm reference. Percent inhibition (% INH) is calculated by subtracting the absorbance of the blank well from all wells, then subtracting the ratio of the average absorbance of each test duplicate (SAVE) by the average of the controls (CAVE) from 1.00. The final number is then multiplied by 100 (% INH=(1.00−SAVE/CAVE)×100). The concentration at which 50% inhibition of cell proliferation is obtained (the IC50) is determined from the linear regression of a plot of the logarithm of the concentration versus percent inhibition.

Sequence of human cyclin D1-CDK4 (P11802 whole entry): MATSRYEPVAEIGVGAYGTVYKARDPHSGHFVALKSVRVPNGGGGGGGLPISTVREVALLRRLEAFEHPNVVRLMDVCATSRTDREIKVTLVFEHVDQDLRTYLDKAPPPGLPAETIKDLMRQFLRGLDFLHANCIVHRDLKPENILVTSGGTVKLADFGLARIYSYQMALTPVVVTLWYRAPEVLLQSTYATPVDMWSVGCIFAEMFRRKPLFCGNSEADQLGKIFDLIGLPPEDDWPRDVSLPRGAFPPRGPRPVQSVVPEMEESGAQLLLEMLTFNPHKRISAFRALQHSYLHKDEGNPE
Sequence of human cyclin D1-CDK4 (P24385 whole entry partner): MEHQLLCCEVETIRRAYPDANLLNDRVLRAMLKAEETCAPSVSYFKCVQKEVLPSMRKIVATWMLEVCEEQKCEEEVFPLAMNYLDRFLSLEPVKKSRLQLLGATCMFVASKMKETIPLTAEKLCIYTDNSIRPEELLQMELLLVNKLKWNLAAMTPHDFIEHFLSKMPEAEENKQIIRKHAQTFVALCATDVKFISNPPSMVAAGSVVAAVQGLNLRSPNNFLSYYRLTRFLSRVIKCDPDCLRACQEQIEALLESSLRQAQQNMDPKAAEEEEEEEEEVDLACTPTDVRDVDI

`CCc1cccc(C(=O)c2sc(Nc3ccc(N4CCC(N(C)C)CC4)cc3)nc2N)c1` [Example 115, {4-Amino-2-[4-(4-dimethylamino-piperidin-1-yl)-phenylamino]-thiazol-5-yl}-(3-ethyl-phenyl)-methanone]: the IC50 at human cyclin D1-CDK4 was 10 nM; against human cyclin E-CDK2, 1040 nM; on human cyclin B-CDK1 it was 2800 nM; in assay [1] it was 1240 nM.
For `COc1ccc(C(=O)c2sc(Nc3ccc(N4CCC(N5CCCCC5)CC4)cc3)nc2N)cc1F` [Example 31, [4-Amino-2-(4-[1,4′]bipiperidinyl-1′-yl-phenylamino)-thiazol-5-yl]-(3-fluoro-4-methoxy-phenyl)-methanone], in that order: 28 nM, 4160 nM, 1720 nM and 3290 nM.
For `CN(C)C1CCN(c2ccc(Nc3nc(N)c(C(=O)c4ccc5c(c4)OCO5)s3)cc2)CC1` [Example 43, {4-Amino-2-[4-(4-dimethylamino-piperidin-1-yl)-phenylamino]-thiazol-5-yl}-benzo[1,3]dioxol-5-yl-methanone], in that order: 7 nM, 3500 nM, 500 nM and 1610 nM.
As to `Nc1nc(Nc2ccc(N3CCC(N4CCCC4)CC3)cc2)sc1C(=O)c1cccc([N+](=O)[O-])c1` [Example 90, {4-Amino-2-[4-(4-pyrrolidin-1-yl-piperidin-1-yl)-phenylamino]-thiazol-5-yl}-(3-nitro-phenyl)-methanone], the IC50 at human cyclin D1-CDK4 came out at 7 nM; against human cyclin E-CDK2 it was 1670 nM; on human cyclin B-CDK1, 580 nM; in assay [1], 2820 nM.
For `CCc1cccc(C(=O)c2sc(Nc3ccc(N4CCC(N5CCCCC5)CC4)cc3)nc2N)c1` [Example 117, [4-Amino-2-(4-[1,4′]bipiperidinyl-1′-yl-phenylamino)-thiazol-5-yl]-(3-ethyl-phenyl)-methanone], in that order: 9 nM, 989 nM, 3220 nM and 1310 nM.
For `COc1cccc(C(=O)c2sc(Nc3ccc(N4CCC(N5CCCC5)CC4)cc3)nc2N)c1` [Example 27], in that order: 17 nM, 3490 nM, 1060 nM and 1850 nM.
The corresponding values for `CCc1cc(C(=O)c2sc(Nc3ccc(N4CCC(N5CCCC5)CC4)cc3)nc2N)ccc1F` [Example 122, {4-Amino-2-[4-(4-pyrrolidin-1-yl-piperidin-1-yl)-phenylamino]-thiazol-5-yl}-(3-ethyl-4-fluoro-phenyl)-methanone] are 20 nM, 5310 nM, 5190 nM and 4220 nM.
In the case of `N#Cc1cccc(C(=O)c2sc(Nc3ccc(N4CCC(N5CCCC5)CC4)cc3)nc2N)c1` [Example 72, 3-{4-Amino-2-[4-(4-pyrrolidin-1-yl-piperidin-1-yl)-phenylamino]-thiazole-5-carbonyl}-benzonitrile], the 50% inhibitory concentration (IC50) on human cyclin D1-CDK4 was 17 nM; against human cyclin E-CDK2, 2050 nM; against human cyclin B-CDK1, 702 nM; in assay [1] it was 2500 nM.
As for `Nc1nc(Nc2ccc(N3CCC(N4CCCC(O)C4)CC3)cc2)sc1C(=O)c1cccc([N+](=O)[O-])c1` (stereo not shown) [Example 91, {4-Amino-2-[4-(3-hydroxy-[1,4′]bipiperidinyl-1′-yl)-phenylamino]-thiazol-5-yl}-(3-nitro-phenyl)-methanone], the IC50 turned out to be 9 nM at human cyclin D1-CDK4, 1820 nM on human cyclin E-CDK2, 710 nM against human cyclin B-CDK1 and 1640 nM in assay [1].
For `N#Cc1cccc(C(=O)c2sc(Nc3ccc(N4CCC(N5CCCC(O)C5)CC4)cc3)nc2N)c1` (stereo not shown) [Example 80, 3-{4-Amino-2-[4-(3-hydroxy-[1,4′]bipiperidinyl-1′-yl)-phenylamino]-thiazole-5-carbonyl}-benzonitrile], in that order: 17 nM, 2580 nM, 1370 nM and 3490 nM.
